# Experimental data from patent publication US11083709B2, “Compounds, compositions, and methods of increasing CFTR activity” (Proteostasis Therapeutics, Inc., priority 2015, dated 2021).
# Counter-ions that a name gives are not always drawn.
# Key:
# ΔF508-CFTR = target: T1, ΔF508-CFTR (Homo sapiens, UniProt P13569, DEL508-508); experiment: hBE equivalent current (Ieq) assay, primary lung epithelial cells homozygous for ΔF508; type: cell-based; conditions: 24 h treatment; for leq: activity relative to VX-809 (AUC of equivalent chloride current): compound alone run at 10 uM, relative to VX-809 at 1 uM; for leq: activity of compound with VX-809, % of VX-809 (AUC of equivalent chloride current): compound at 10 uM and VX-809 at 1 uM, relative to VX-809 (1 uM)
# T1 construct: primary lung epithelial cells (hBEs) homozygous for the Cystic Fibrosis-causing ΔF508 mutation; endogenous in cells; host or cells: primary lung epithelial cells (hBEs) homozygous for ΔF508
# Description: Primary lung epithelial cells homozygous for the Cystic Fibrosis-causing ΔF508 mutation were differentiated for a minimum of 4 weeks in an air-liquid interface on Costar 24 well HTS filter plates prior to the equivalent current (Ieq) measurements. Cells were apically mucus-washed for 30 minutes 24h prior to treatment with compounds. The basolateral media was removed and replaced with media containing the compound of interest diluted to its final concentration from DMSO stocks. Treated cells were incubated at 37° C. and 5% CO2 for 24 hours. At the end of the treatment period, the media was changed to the Ieq experimental solution for 30 minutes before the experiment and plates are maintained in a CO2-free incubator during this period. The plates containing the cells were then placed in pre-warmed heating blocks at 36° C.±0.5 for 15 minutes before measurements are taken. The transepithelial voltage (VT) and conductance (GT) were measured using a custom 24 channel current clamp (TECC-24) with 24 well electrode manifold. The Ieq assay measurements were made following additions with standardized time periods: • 1. The baseline VT and GT values were measured for approximately 20 minutes. • 2. Benzamil was added to block ENaC for 15 minutes. • 3. Forskolin plus VX-770 (ivacaftor) were added to maximally activate ΔF508-CFTR for 27 minutes. • 4. Bumetanide was added to inhibit the NaK2Cl cotransporter and shut-off secretion of chloride.
# The activity data captured was the area under the curve (AUC) for the traces of the equivalent chloride current. The AUC was collected from the time of the forskolin/VX-770 addition until the inhibition by bumetanide addition. Correction in response to compound treatment was scored as the increase in the AUC for compound-treated samples over that of vehicle-treated samples.
# The results are shown below in Table 2. ++ indicates activity ≥25% run at 10 uM of VX-809 at 1 uM, + indicates activity 10 to <25% run at 10 uM of VX-809 at 1 uM, ** indicates activity ≥200% of VX-809 (1 uM) with compound at 10 uM and VX-809 at 1 uM; * indicates activity 100-200% of VX-809 (1 uM) with compound at 10 uM and VX-809 at 1 uM. ^## indicates activity ≥200% of VX-809 (3 uM) with compound at 10 uM and VX-809 at 3 uM; ^# indicates activity 100-200% of VX-809 (3 uM) with compound at 10 uM and VX-809 at 3 uM.
# [1] = system: CFTR in R117H/F508del HBEs; experiment: Ussing measurements, R117H/F508del HBEs; type: cell-based, human; conditions: Ussing; Compound A 10 uM, ivacaftor 1 uM
# Description: (§1) As discussed above, Ussing measurements was used to measure CFTR activity. In this method, primary lung epithelial cells (hBEs) with a Cystic Fibrosis-causing class III mutation were differentiated for a minimum of 4 weeks in an air-liquid interface on SnapWell™ filter plates prior to the Ussing measurements. Cells were apically mucus-washed for 30 minutes prior to treatment with compounds. The basolateral media was removed and replaced with media containing the compound of interest diluted to its final concentration from DMSO stocks. Treated cells were incubated at 37° C. and 5% CO2 for 24 hours. At the end of the treatment period, the cells on filters were transferred to the Ussing chamber and equilibrated for 30 minutes. The short-circuit current was measured in voltage clamp-mode (Vhold=0 mV), and the entire assay was conducted at a temperature of 36° C.-36.5° C. Once the voltages stabilized, the chambers were clamped, and data was recorded by pulse readings every 5 seconds. Following baseline current stabilization, the following additions were applied and the changes in current and resistance of the cells was monitored: • 1. Benzamil to the apical chamber to inhibit ENaC sodium channel. • 2. Forskolin to both chambers to activate ΔF508-CFTR by phosphorylation. • 3. Ivacaftor or Genistein to the apical chamber to potentiate ΔF508-CFTR channel opening. • 4. CFTRinh-172 to the apical chamber to inhibit ΔF508-CFTR Cl-conductance.
# (§2) The forskolin-sensitive current and inhibitable current (that potentiated current that is blocked by CFTRinh-172) were measured as the specific activity of the ΔF508-CFTR channel, and increase in response to compound in this activity over that observed in vehicle-treated samples were identified as the correction of ΔF508-CFTR function imparted by the compound tested.
# (§3) The results are shown below in Tables 5 and 6. Compound A is 10 uM and VX-809 is 3 uM and ivacaftor is 1 uM.
# [2] = system: CFTR in G551D/F508del HBEs; experiment: Ussing measurements, G551D/F508del HBEs; type: cell-based, human; conditions: Ussing; Compound A 10 uM, ivacaftor 1 uM
# Description: as §1, §2, §3
# T1 sequence (P13569 with tags, fused parts or gaps DEL508-508): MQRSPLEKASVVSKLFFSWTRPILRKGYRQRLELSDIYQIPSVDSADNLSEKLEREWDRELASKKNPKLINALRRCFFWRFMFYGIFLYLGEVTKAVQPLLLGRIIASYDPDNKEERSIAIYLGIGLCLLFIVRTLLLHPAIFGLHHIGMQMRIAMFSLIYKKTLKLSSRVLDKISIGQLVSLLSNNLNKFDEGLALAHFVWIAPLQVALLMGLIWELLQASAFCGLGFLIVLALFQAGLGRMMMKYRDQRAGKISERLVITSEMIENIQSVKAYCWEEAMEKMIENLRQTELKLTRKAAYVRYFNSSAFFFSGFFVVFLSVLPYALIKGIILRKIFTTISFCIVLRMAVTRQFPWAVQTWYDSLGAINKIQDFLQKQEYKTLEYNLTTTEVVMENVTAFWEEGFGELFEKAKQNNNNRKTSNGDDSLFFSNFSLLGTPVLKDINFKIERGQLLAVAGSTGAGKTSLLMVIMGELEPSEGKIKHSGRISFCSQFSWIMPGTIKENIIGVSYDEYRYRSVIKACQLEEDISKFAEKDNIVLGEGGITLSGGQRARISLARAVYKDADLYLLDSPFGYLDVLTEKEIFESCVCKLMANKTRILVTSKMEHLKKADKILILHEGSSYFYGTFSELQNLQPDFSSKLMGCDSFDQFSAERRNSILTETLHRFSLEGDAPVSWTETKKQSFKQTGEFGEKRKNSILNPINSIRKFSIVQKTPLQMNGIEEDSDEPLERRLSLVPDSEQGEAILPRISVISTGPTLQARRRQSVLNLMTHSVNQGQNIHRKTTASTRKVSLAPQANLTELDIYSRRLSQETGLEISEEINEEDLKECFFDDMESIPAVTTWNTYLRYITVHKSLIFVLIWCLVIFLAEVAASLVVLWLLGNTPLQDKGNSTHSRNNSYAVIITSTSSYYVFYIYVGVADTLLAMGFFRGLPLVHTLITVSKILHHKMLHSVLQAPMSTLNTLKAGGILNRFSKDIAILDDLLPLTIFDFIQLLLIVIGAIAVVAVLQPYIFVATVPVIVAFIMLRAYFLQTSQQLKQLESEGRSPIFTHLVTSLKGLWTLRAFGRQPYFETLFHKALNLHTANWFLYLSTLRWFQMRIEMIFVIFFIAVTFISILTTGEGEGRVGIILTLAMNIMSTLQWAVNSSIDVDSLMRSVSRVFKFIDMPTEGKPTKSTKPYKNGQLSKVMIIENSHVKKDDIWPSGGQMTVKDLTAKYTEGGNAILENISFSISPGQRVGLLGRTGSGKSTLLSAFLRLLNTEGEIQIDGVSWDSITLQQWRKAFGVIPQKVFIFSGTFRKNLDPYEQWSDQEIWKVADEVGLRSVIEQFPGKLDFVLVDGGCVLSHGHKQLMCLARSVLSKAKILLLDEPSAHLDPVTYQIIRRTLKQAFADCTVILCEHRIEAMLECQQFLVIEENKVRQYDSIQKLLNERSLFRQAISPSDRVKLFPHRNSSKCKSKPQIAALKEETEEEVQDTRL
SMILES,leq: activity relative to VX-809 (AUC of equivalent chloride current) (ΔF508-CFTR),"leq: activity of compound with VX-809, % of VX-809 (AUC of equivalent chloride current) (ΔF508-CFTR)",further results
"COCCNC(=O)c1cc(-c2ccccc2)co1 [Example 8, N-(2-methoxyethyl)-4-phenylfuran-2-carboxamide]",+ (+ indicates activity 10 to <25% run at 10 uM of VX-809 at 1 uM),,
"C[C@@H](O)c1nnc(C[C@H]2C[C@@H](NC(=O)c3cc(-c4cccs4)no3)C2)o1 [Example 45, N-[(1s,3s)-3-([5-[(1R)-1-Hydroxyethyl]-1,3,4-oxadiazol-2-yl]methyl)cyclobutyl]-3-(thiophen-2-yl)-1,2-oxazole-5-carboxamide]",,* (* indicates activity 100-200% of VX-809 (1 uM) with compound at 10 uM and VX-809 at 1 uM),
"Cn1nccc1CCCNC(=O)c1cc(-c2ccccc2)no1 [Example 7, N-(3-(1-methyl-1H-pyrazol-5-yl)propyl)-3-phenylisoxazole-5-carboxamide]",++ (++ indicates activity ≥25% run at 10 uM of VX-809 at 1 uM),* (* indicates activity 100-200% of VX-809 (1 uM) with compound at 10 uM and VX-809 at 1 uM),
"CN1CC(c2nnc([C@H]3C[C@H](NC(=O)c4cc(-c5ccccc5)no4)C3)o2)C1 [Example 21, N-(trans-3-(5-(1-methylazetidin-3-yl)-1,3,4-oxadiazol-2-yl)cyclobutyl)-3-phenylisoxazole-5-carboxamide trifluoroacetate]",,* (* indicates activity 100-200% of VX-809 (1 uM) with compound at 10 uM and VX-809 at 1 uM),
"O=C(NCCN1CCOCC1)c1cc(-c2ccccc2)no1 [Example 3, N-(2-morpholinoethyl)-3-phenylisoxazole-5-carboxamide]",++ (++ indicates activity ≥25% run at 10 uM of VX-809 at 1 uM),,
"CC(OCC(F)(F)F)c1nnc(C2CC(NC(=O)c3cc(-c4ccccc4)no3)C2)o1 (single isomer, unassigned) [Example 15]",,* (* indicates activity 100-200% of VX-809 (1 uM) with compound at 10 uM and VX-809 at 1 uM),
"COCCNC(=O)c1cc(-c2ccccc2)no1 [Example 1, N-(2-methoxyethyl)-3-phenylisoxazole-5-carboxamide]",++ (++ indicates activity ≥25% run at 10 uM of VX-809 at 1 uM),,
"O=C(N[C@H]1C[C@H](c2nnc(C3CS(=O)(=O)C3)o2)C1)c1cc(-c2ccccc2)no1 [Example 23, N-(trans-3-(5-(1,1-dioxidothietan-3-yl)-1,3,4-oxadiazol-2-yl)cyclobutyl)-3-phenylisoxazole-5-carboxamide]",,* (* indicates activity 100-200% of VX-809 (1 uM) with compound at 10 uM and VX-809 at 1 uM),
"CC(C)(C)c1cc(C(C)(C)C)c(NC(=O)c2c[nH]c3ccccc3c2=O)cc1O [ivacaftor, reference compound]",,,Activity in R117H/F508del HBEs (relative to ivacaftor activity) [1]: 100%; Activity in G551D/F508del HBEs (relative to ivacaftor activity) [2]: 100%
"C[C@@H](O)c1nnc(CC2CC(NC(=O)c3cc(-c4ccc(F)cc4)no3)C2)s1 (stereo partly drawn) [Example 44, 3-(4-Fluorophenyl)-N-[(1r,3r)-3-([5-[(1R)-1-hydroxyethyl]-1,3,4-thiadiazol-2-yl]methyl)cyclobutyl]-1,2-oxazole-5-carboxamide]",,** (** indicates activity ≥200% of VX-809 (1 uM) with compound at 10 uM and VX-809 at 1 uM),
"C[C@@H](O)c1nnc(CC2CC(NC(=O)c3cc(-c4ccc(F)cc4)no3)C2)o1 (stereo partly drawn) [Example 40, 3-(4-Fluorophenyl)-N-[(1r,3r)-3-([5-[(1R)-1-hydroxyethyl]-1,3,4-oxadiazol-2-yl]methyl)cyclobutyl]-1,2-oxazole-5-carboxamide]",,** (** indicates activity ≥200% of VX-809 (1 uM) with compound at 10 uM and VX-809 at 1 uM),
"O=C(NC1CC1)c1cc(-c2ccccc2)co1 [Example 12, N-cyclopropyl-4-phenylfuran-2-carboxamide]",++ (++ indicates activity ≥25% run at 10 uM of VX-809 at 1 uM),* (* indicates activity 100-200% of VX-809 (1 uM) with compound at 10 uM and VX-809 at 1 uM),
"C[C@@H](O)c1nnc(CC2CC(NC(=O)c3cc(-c4ccccc4)no3)C2)s1 (stereo partly drawn) [Example 41, 3-Phenyl-N-[(1s,3s)-3-([5-[(1R)-1-hydroxyethyl]-1,3,4-thiadiazol-2-yl]methyl)cyclobutyl]-1,2-oxazole-5-carboxamide]",,** (** indicates activity ≥200% of VX-809 (1 uM) with compound at 10 uM and VX-809 at 1 uM),
"O=C(NCC1CCCO1)c1cc(-c2ccccc2)no1 (stereo not drawn) [Example 2, 3-phenyl-N-((tetrahydrofuran-2-yl)methyl)isoxazole-5-carboxamide]",++ (++ indicates activity ≥25% run at 10 uM of VX-809 at 1 uM),,
"CC(OC1CCC1)c1nnc([C@H]2C[C@H](NC(=O)c3cc(-c4ccccc4)no3)C2)o1 (relative stereo) [Example 17, N-(trans-3-(5-(1-cyclobutoxyethyl)-1,3,4-oxadiazol-2-yl)cyclobutyl)-3-phenylisoxazole-5-carboxamide]",,* (* indicates activity 100-200% of VX-809 (1 uM) with compound at 10 uM and VX-809 at 1 uM),
